Legend:
Experiment in all cases: KINOMEscan competition binding
Conditions in all cases: compound 10.0 µM; call rule not given here
[1] = molecular target: ULK3 (human) (UniProt Q6PHR2)
[2] = molecular target: STK17A (human) (UniProt Q9UEE5)
[3] = molecular target: ACVRL1 (human) (UniProt P37023)
[4] = molecular target: STK11 (human) (UniProt Q15831)
[5] = molecular target: TLK1 (human) (UniProt Q9UKI8)
[6] = molecular target: MST4 (human) (UniProt Q9P289)
[7] = system: EIF2AK4 KD2 (human), Q9P2K8 [S808G]
[8] = molecular target: BMP2K (human) (UniProt Q9NSY1)
[9] = molecular target: ITK (human) (UniProt Q08881)
[10] = molecular target: STK3 (human) (UniProt Q13188)
[11] = molecular target: DAPK3 (human) (UniProt O43293)
[12] = molecular target: CSNK2A2 (human) (UniProt P19784)
[13] = molecular target: FGR (human) (UniProt P09769)
[14] = molecular target: TYK2 JH1 catalytic (human) (UniProt P29597)
[15] = molecular target: STK24 (human) (UniProt Q9Y6E0)
[16] = molecular target: EPHB1 (human) (UniProt P54762)
[17] = molecular target: PDGFRB (human) (UniProt P09619)
[18] = molecular target: YES1 (human) (UniProt P07947)
[19] = molecular target: MAP3K11 (human) (UniProt Q16584)
[20] = molecular target: SRPK1 (human) (UniProt Q96SB4)
[21] = molecular target: KIT (human) (UniProt P10721)
[22] = molecular target: CSNK2A1 (human) (UniProt P68400)
[23] = molecular target: LYN (human) (UniProt P07948)
[24] = molecular target: PRKAA2 (human) (UniProt P54646)
[25] = molecular target: MYLK2 (human) (UniProt Q9H1R3)
[26] = molecular target: MAP4K4 (human) (UniProt O95819)
[27] = molecular target: BTK (human) (UniProt Q06187)
[28] = molecular target: EPHA1 (human) (UniProt P21709)
[29] = molecular target: TNK1 (human) (UniProt Q13470)
[30] = molecular target: MAP4K1 (human) (UniProt Q92918)
[31] = molecular target: MERTK (human) (UniProt Q12866)
[32] = molecular target: KDR (human) (UniProt P35968)
[33] = molecular target: MAP4K3 (human) (UniProt Q8IVH8)
[34] = molecular target: EPHA3 (human) (UniProt P29320)
[35] = molecular target: NLK (human) (UniProt Q9UBE8)
[36] = molecular target: TNK2 (human) (UniProt Q07912)
[37] = molecular target: CSNK1D (human) (UniProt P48730)
[38] = molecular target: TESK1 (human) (UniProt Q15569)
[39] = molecular target: STK4 (human) (UniProt Q13043)
[40] = molecular target: MAPK12 (human) (UniProt P53778)

EPHA1 (human), sequence (P21709 whole entry, looked up): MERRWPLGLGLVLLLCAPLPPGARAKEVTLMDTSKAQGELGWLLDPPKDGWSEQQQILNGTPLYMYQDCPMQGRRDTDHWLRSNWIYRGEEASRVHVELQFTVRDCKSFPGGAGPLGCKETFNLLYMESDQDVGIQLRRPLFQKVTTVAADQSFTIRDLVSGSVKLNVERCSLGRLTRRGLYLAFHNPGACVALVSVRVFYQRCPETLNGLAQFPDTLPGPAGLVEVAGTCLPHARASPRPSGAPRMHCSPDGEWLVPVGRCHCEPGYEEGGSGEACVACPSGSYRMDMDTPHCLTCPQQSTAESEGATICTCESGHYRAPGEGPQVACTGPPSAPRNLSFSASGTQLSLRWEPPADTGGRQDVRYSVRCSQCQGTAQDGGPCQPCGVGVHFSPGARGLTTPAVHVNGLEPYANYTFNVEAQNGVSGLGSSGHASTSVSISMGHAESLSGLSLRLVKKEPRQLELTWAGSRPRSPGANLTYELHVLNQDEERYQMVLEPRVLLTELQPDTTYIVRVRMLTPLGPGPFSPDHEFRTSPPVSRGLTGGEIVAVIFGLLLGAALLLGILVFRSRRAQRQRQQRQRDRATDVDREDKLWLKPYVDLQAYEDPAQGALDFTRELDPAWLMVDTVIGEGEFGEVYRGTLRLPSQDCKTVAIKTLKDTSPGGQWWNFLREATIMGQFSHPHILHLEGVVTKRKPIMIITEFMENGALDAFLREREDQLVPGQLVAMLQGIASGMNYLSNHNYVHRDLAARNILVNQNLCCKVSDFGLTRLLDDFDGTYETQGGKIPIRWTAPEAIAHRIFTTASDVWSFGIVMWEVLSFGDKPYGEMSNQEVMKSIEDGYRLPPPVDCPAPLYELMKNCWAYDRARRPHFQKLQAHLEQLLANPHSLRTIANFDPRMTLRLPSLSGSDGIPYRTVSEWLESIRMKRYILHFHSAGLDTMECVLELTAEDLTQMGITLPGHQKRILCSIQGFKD
STK24 (human), sequence (Q9Y6E0 whole entry, looked up): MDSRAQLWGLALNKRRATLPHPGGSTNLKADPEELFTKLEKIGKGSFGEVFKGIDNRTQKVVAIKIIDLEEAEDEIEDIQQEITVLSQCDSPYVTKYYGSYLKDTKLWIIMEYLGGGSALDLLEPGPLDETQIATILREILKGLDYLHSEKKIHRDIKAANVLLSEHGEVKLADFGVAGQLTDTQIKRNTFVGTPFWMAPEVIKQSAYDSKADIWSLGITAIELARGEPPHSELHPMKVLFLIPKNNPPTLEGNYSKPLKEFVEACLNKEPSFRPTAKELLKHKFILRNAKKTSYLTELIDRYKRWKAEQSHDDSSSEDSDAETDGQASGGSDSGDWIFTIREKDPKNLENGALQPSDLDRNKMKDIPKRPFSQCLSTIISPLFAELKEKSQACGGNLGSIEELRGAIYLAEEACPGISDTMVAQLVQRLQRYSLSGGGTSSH
MAP4K3 (human), sequence (Q8IVH8 whole entry, looked up): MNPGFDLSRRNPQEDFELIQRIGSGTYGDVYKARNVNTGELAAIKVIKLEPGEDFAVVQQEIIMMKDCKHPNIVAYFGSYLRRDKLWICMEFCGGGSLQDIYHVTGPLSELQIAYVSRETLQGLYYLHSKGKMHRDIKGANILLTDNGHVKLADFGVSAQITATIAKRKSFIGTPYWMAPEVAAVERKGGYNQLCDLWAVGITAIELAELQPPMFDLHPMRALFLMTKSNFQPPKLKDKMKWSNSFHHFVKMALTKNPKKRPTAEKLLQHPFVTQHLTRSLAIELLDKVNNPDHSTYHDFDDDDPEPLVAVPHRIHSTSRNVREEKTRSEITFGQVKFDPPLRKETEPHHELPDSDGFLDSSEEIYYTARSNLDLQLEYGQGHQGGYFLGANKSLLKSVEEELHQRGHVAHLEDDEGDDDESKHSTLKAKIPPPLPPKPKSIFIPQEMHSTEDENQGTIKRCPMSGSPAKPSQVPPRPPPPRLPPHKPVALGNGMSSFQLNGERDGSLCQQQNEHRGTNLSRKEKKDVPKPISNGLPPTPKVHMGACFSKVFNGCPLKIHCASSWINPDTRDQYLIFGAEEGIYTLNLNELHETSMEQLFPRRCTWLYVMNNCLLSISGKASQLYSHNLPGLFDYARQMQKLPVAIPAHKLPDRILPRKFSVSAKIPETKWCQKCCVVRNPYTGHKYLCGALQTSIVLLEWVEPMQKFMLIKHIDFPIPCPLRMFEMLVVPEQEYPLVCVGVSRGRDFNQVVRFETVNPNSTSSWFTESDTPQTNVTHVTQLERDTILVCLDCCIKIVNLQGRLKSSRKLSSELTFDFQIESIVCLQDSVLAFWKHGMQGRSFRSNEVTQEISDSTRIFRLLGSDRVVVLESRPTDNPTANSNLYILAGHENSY
EIF2AK4 KD2 (human), Q9P2K8 [S808G], sequence (Q9P2K8 whole entry S808G, looked up): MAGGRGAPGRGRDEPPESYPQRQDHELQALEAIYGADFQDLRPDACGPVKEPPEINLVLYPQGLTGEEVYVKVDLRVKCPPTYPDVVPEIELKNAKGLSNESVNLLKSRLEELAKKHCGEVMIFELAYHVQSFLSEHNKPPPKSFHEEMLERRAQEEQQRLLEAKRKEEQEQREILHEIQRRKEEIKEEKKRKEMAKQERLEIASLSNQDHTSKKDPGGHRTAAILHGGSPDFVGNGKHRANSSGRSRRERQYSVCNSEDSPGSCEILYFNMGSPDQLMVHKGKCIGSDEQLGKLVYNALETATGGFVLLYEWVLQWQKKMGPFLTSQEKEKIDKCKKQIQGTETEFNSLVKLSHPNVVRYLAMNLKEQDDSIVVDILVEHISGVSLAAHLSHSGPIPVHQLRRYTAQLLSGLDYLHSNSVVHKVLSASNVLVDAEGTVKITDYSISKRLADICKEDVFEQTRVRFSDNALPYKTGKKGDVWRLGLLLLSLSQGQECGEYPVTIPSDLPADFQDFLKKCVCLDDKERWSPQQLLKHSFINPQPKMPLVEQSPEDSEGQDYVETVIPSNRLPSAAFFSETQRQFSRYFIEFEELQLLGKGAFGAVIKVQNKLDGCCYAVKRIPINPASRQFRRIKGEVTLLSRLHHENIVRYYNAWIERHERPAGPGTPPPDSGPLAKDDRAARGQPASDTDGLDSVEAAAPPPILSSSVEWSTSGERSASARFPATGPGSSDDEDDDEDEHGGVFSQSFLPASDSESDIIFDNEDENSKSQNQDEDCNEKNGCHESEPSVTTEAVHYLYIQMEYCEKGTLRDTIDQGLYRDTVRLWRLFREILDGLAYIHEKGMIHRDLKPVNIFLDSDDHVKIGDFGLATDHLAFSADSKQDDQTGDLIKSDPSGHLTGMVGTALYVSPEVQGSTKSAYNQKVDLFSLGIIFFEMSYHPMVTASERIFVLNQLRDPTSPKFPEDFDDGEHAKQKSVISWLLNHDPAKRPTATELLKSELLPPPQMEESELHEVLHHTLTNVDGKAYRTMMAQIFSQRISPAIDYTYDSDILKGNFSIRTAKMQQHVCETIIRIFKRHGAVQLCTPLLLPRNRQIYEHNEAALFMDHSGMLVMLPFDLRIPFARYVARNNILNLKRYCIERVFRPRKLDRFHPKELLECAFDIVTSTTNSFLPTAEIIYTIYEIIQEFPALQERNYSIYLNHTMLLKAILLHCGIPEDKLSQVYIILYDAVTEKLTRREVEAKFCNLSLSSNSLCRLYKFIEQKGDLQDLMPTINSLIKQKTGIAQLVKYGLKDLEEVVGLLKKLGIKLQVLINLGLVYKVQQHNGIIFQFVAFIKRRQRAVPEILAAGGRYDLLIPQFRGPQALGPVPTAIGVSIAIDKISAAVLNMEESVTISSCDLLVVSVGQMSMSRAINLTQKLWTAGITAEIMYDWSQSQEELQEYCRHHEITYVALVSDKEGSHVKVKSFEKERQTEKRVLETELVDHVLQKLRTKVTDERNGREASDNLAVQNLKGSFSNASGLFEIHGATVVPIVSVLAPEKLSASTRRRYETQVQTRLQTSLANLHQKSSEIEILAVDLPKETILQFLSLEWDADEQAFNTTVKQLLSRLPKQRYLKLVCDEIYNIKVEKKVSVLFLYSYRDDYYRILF
MST4 (human), sequence (Q9P289 whole entry, looked up): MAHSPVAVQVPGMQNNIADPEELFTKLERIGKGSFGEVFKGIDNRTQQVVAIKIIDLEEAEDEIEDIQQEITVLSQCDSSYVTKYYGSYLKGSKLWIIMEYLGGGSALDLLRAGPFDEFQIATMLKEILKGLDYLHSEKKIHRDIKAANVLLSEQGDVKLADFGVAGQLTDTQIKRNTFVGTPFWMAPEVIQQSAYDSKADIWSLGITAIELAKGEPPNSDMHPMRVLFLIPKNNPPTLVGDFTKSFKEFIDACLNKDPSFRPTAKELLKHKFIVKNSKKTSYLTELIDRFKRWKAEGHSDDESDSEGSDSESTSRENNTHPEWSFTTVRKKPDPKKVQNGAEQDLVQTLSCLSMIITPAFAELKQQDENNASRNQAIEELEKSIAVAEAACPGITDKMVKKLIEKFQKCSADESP
TESK1 (human), sequence (Q15569 whole entry, looked up): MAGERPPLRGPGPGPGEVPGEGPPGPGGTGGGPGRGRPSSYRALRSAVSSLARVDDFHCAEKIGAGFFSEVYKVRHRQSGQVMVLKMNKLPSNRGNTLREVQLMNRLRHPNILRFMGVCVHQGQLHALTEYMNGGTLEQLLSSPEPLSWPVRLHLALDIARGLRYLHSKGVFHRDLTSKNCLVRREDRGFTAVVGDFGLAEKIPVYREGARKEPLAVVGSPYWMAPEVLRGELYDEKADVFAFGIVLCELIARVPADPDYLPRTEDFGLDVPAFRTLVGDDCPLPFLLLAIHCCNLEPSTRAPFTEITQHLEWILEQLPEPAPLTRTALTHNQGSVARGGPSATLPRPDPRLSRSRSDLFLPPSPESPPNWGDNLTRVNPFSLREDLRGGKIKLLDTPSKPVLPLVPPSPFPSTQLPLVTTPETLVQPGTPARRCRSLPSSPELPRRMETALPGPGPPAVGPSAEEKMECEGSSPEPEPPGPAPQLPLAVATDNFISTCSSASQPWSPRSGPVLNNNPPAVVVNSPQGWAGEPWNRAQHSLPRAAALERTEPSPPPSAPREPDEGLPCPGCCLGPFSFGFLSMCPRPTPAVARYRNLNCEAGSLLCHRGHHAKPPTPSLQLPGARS

- kinase still bound, per cent of control [1]: 0%
- kinase still bound, per cent of control [2]: 0%
- kinase still bound, per cent of control [3]: 0%
- kinase still bound, per cent of control [4]: 1%
- kinase still bound, per cent of control [5]: 0.75%
- kinase still bound, per cent of control [6]: 17.2%
- kinase still bound, per cent of control [7]: 0%
- kinase still bound, per cent of control [8]: 0%
- kinase still bound, per cent of control [9]: 0.1%
- kinase still bound, per cent of control [10]: 0%
- kinase still bound, per cent of control [11]: 2.1%
- kinase still bound, per cent of control [12]: 0%
- kinase still bound, per cent of control [13]: 0.1%
- kinase still bound, per cent of control [14]: 0%
- kinase still bound, per cent of control [15]: 0.1%
- kinase still bound, per cent of control [16]: 0%
- kinase still bound, per cent of control [17]: 0%
- kinase still bound, per cent of control [18]: 0%
- kinase still bound, per cent of control [19]: 12.3%
- kinase still bound, per cent of control [20]: 0%
- kinase still bound, per cent of control [21]: 0.1%
- kinase still bound, per cent of control [22]: 0%
- kinase still bound, per cent of control [23]: 0.2%
- kinase still bound, per cent of control [24]: 0%
- kinase still bound, per cent of control [25]: 20.7%
- kinase still bound, per cent of control [26]: 0.25%
- kinase still bound, per cent of control [27]: 0%
- kinase still bound, per cent of control [28]: 0.2%
- kinase still bound, per cent of control [29]: 1%
- kinase still bound, per cent of control [30]: 0.5%
- kinase still bound, per cent of control [31]: 0%
- kinase still bound, per cent of control [32]: 0%
- kinase still bound, per cent of control [33]: 0.1%
- kinase still bound, per cent of control [34]: 0%
- kinase still bound, per cent of control [35]: no effect (inactive)
- kinase still bound, per cent of control [36]: 0%
- kinase still bound, per cent of control [37]: no effect (inactive)
- kinase still bound, per cent of control [38]: 10.8%
- kinase still bound, per cent of control [39]: 0%
- kinase still bound, per cent of control [40]: no effect (inactive)
Compound: CCS(=O)(=O)Nc1ccc2c(c1)[C@H](/C(=N/c1ccc(CN3CCCCC3)cc1)c1ccccc1)C(=O)N2

Source: the kinase profiling compilation of Christmann-Franck et al. (2016)
